According to patent US7786258B2, “Methods for inhibiting immune complex formation in a subject” (Trinity Therapeutics, Inc., priority 2004, dated 2010):
Like-named read-outs stand apart in the source and are kept apart here. Positions of bridges follow the written chain, without caps; N, C: chain ends. Residues, ends and D or L forms follow the SMILES beside them. No end group written: not given here.

Columns and labels:
[1] = tested on: DBA/1J mice with collagen-induced arthritis
human monomeric IgG = experiment: Inhibition of rheumatoid factor binding to monomeric IgG (Example 4); settings: peptides pre-incubated 30 minutes with monomeric IgG, then 200 I.U. RF; (+) control buffer only 1.376
Experimental: The ability of the peptides to inhibit the binding of rheumatoid factor to monomeric IgG was tested. Binding to monomeric IgG may be important, as it may increase the half-life of particular peptides and allow them to be more bioactive.
A standard rheumatoid factor commercial test was used (Research Diagnostics) with the following modifications: 100 μl of test peptides were pre-incubated for 30 minutes with human monomeric IgG (Research Diagnostics). Plates were washed and incubated with 200 I.U. rheumatoid factor positive control supplied with the test kit. The rest of the test was performed according to the manufacturer's instructions.

histone = experiment: Inhibition of histone binding: PAP immune complexes on histone-coated plates (Example 3); settings: rabbit PAP pre-incubated with peptides or histone one hour; (+) control buffer only 1.268
Experimental: Inhibition of histone binding: The binding of immune complexes to the kidneys in lupus nephritis appears to involve (a) the binding of histones to the GBM, and then (b) the binding of immune complexes (through the IgG Fc CH2-CH3 cleft) to the bound histones. Experiments similar to those described above were used to inhibit binding of purified histone to IgG Fc binding. Histone (Sigma) was diluted 1:10 in coating buffer (Alpha Diagnostic International) and incubated on Falcon microtiter plates for 24 hours. Plates were blocked with 5× BSA blocking solution (Alpha Diagnostic International) for 24 hours. Freshly prepared 1:10 rabbit PAP (Sigma) was pre-incubated with either peptides or histone for one hour, and 100 μl of the mixture was added to the histone-coated plates for one hour. Plates were incubated with ABTS substrate (Quidel Corp.) for 45 minutes, and OD 405 was read.

C1q = experiment: Inhibition of C1q binding: reverse ELISA, PAP immune complexes on C1q coated plates (Example 3); design: species or system human; settings: for OD 405 nm: peptide or C1q pre-incubated with PAP 30 minutes, (+) control PAP with no peptide 0.467, lower OD = more inhibition
Excerpt: For this reason, a “reverse ELISA” technique is used to assess binding of the Fc region to ligands that bind to immune complexed IgG Fc. In a reverse ELISA, the enzyme (e.g., HRP) is not covalently conjugated to the Fc portion of the secondary antibody. Rather, a preformed immune complex of peroxidase-rabbit (or mouse) anti-peroxidase IgG (“PAP” complex) is used. […] In the absence of competitor, PAP complexes bind to the immobilized ligand and the reaction between HRP and its substrate produces a signal. This signal is reduced by polypeptides and compounds of the invention that inhibit PAP binding to the immobilized ligand.
Inhibition of C1q binding: Twenty μl of peroxidase (P) (Sigma) was diluted in 2 ml of sample diluent (Quidel Corp, San Diego, Calif.). Twenty μl of anti-peroxidase (AP) (Sigma) was diluted in 2 ml of sample diluent, and 20 μl of the diluted AP was added to the diluted P (1:100 antigen:antibody ratio) to form peroxidase-anti-peroxidase (PAP) complexes. The extreme antigen excess guaranteed that any single antibody would be bound to two peroxidase molecules and larger immune complexes would not form, thus preventing the bridging of larger immune complexes to multimeric C1q (heximeric). One hundred μl of peptide or C1q was pre-incubated with freshly prepared PAP for 30 minutes, added to C1q coated plates (Quidel Corp.), and incubated for one hour. After washing, ABTS substrate (Quidel Corp.) was added to the plates and incubated for 30 minutes, and the plates were read at 405 nm. All peptides were cyclized by forming a disulfide bond between the two cysteine residues.

FcγIIa = experiment: Inhibition of FcR binding: reverse ELISA, PAP immune complexes on FcγIIa coated plates (Example 3); settings: plates read at 450 nm, (+) control PAP with no peptide 3.600
Experimental: (§1) Inhibition of FcR binding: Once the reverse ELISA protocol was established using the C1q assay, the assay was redesigned using FcγIIa, FcγIIb and FcγIII in place of C1q. Highly purified FcγIIa, FcγIIb and FcγIII were immunoadsorbed onto plastic microwells. After optimizing the FcγR reverse ELISA system, simple competitive inhibition experiments using polypeptides of the invention were conducted to investigate their ability to inhibit binding of immune complexes to purified FcγR.
(§2) Falcon microtiter plates were coated with 1:10 dilutions of highly purified FcγIIa, FcγIIb and FcγIII and incubated for 24 hours. […] Equal amounts (50 μl) of peptide and 1:10 PAP immune complexes were pre-incubated for one hour and then incubated on the FcR coated plates for one hour. […] Stop solution (10 μl) was added and the plates were read at 450 nm.

polyclonal IgM RF = experiment: Inhibition of RF binding: PAP immune complexes on rheumatoid factor coated plates (Example 3); settings: for OD 405 nm: PAP pre-incubated 30 minutes with peptides or RF, (+) control PAP with no peptide 0.753; for inhibition of RF binding to immune complexes, in words: Table 3
Experimental: Inhibition of RF binding: The assay to test inhibition of RF binding to the IgG Fc CH2-CH3 clefts was very similar to the C1q-CIC EIA assay described above, with the exception that polyclonal IgM RF was coated onto the microwells instead of C1q. […] High titer, RF positive sera were purchased from Research Diagnostics (Flanders, N.J.).
A 1:10 dilution of 200 μl of 200 I.U. rheumatoid factor (RF) (+) control (positive standard provided by Research Diagnostics was coated onto Falcon microtiter plates and incubated for 24 hours. The plates were blocked with 1:5 BSA blocking buffer (Alpha Diagnostic International) for one hour. Freshly prepared 1:10PAP (antigen:antibody) immune complexes were pre-incubated for 30 minutes with peptides or RF (positive control containing only buffer). After washing, plates were incubated with ABTS substrate (Research Diagnostics) for 30 minutes and then read at 405 nm. Results are shown in Table 3.

FcγIII = experiment: Inhibition of FcR binding: reverse ELISA, PAP immune complexes on FcγIII coated plates (Example 3); settings: plates read at 450 nm, (+) control PAP with no peptide 3.600
Experimental: as §1, §2

FcγIIb = experiment: Inhibition of FcR binding: reverse ELISA, PAP immune complexes on FcγIIb coated plates (Example 3); settings: plates read at 450 nm, (+) control PAP with no peptide 3.600
Experimental: as §1, §2

whole human IgG4 = experiment: Inhibition of Fc:Fc interactions: immune complexes on IgG4 coated microwells (Example 3); type: binding; settings: for OD 405 nm: IgG4 coated microwells, positive control (buffer) 0.716
Excerpt: Inhibition of Fc:Fc interactions: The Fc region of IgG4 interacts in an Fc to Fc fashion with immune complexed IgG. Purified IgG4 is used with polypeptides of the invention to examine inhibition of immune complex formation and Fc:Fc interactions. Chemical modification of His435, a critical IgG Fc amino acid bound by polypeptides of the invention, is known to inhibit Fc:Fc interactions.

MBP = settings: rabbit PAP pre-incubated with peptide or MBP 30 minutes; (+) control buffer only 1.033
Experimental: Inhibition of MBP binding: MBP (Sigma) was diluted 1:10 with coating buffer (Alpha Diagnostic International) and incubated for 24 hours on Falcon microtiter plates. Plates were washed and then blocked with 5× BSA blocking buffer (Alpha Diagnostic International) for 24 hours. Rabbit 1:10 PAP immune complexes were pre-incubated with equal amounts of peptide or MBP for 30 minutes. One hundred μl of PAP immune complexes/peptide or PAP/MBP was then added to the MBP-coated plates and incubated for one hour. The plates were washed and incubated with TMB substrate (Alpha Diagnostic International) for 30 minutes. After adding stop solution (Alpha Diagnostic International), the plates were read at 450 nm.
Further experiments were conducted to determine the effect of SEQ ID NO:47 (also referred to as NB-406) on binding of MBP to IgG PAP immune complexes.

[2] = 10 mg/kg, versus diseased control

whole human IgG4, sequence (P01861 99-327 isoform P01861-1 limits assumed): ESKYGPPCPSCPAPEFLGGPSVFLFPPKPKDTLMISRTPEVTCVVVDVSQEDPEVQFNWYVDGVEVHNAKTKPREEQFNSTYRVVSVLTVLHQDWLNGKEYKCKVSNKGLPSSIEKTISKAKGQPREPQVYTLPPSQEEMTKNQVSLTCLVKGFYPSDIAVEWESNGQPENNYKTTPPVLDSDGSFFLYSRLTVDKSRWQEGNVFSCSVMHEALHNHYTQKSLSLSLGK

CC(C)C[C@@H]1NC(=O)[C@H](Cc2c[nH]cn2)NC(=O)[C@H](CCCNC(=N)N)NC(=O)[C@H](C)NC(=O)[C@@H](NC(=O)[C@@H]2CCCN2C(=O)[C@@H]2CCCN2C(=O)[C@H](C)N)CSSC[C@@H](C(=O)N[C@H](C(=O)O)[C@@H](C)O)NC(=O)[C@H](Cc2c[nH]c3ccccc23)NC(=O)[C@H](C(C)C)NC(=O)[C@H](CC(C)C)NC(=O)[C@H](CCC(=O)O)NC(=O)CNC1=O (HELM PEPTIDE1{A.P.P.C.A.R.H.L.G.E.L.V.W.C.T}$PEPTIDE1,PEPTIDE1,4:R3-14:R3$$$V2.0)
adverse reactions at injection sites ([1]; mouse, in vivo, sc): no adverse reactions were observed

RCARHLGELVWCT (disulfide 2-12 (inferred))
OD 405 nm (human monomeric IgG): 1.314
OD 405 nm (histone): 0.359
OD 405 nm (C1q): 0.247
PAP immune complex binding (OD at 450 nm) (FcγIIa): 3.398
OD 405 nm (polyclonal IgM RF): 0.152
OD 450 nm (PAP immune complex binding) (FcγIII): 3.502
OD at 450 nm (PAP binding to FcγIIb) (FcγIIb): 3.284
OD 405 nm (whole human IgG4): 0.191
OD 405 nm (MBP): 0.569

DCARHLGELVWCT (disulfide 2-12 (inferred))
OD 405 nm (human monomeric IgG): 1.231
OD 405 nm (histone): 0.363
OD 405 nm (C1q): 0.193
PAP immune complex binding (OD at 450 nm) (FcγIIa): 2.539
OD 405 nm (polyclonal IgM RF): 0.109
inhibition of RF binding to immune complexes, in words (polyclonal IgM RF): very effective inhibition
OD 450 nm (PAP immune complex binding) (FcγIII): 2.529
OD at 450 nm (PAP binding to FcγIIb) (FcγIIb): 1.952
OD 405 nm (whole human IgG4): 0.096
inhibition of Fc:Fc binding, in words (whole human IgG4; text on Table 8): strongest inhibition
OD 405 nm (MBP): 0.473

REMICADE: REMICADE® was obtained from Centocor (Malvern, Pa.)
effect on arthritic symptoms, in words ([1]; 10 mg/kg): no effect
effect on histological symptoms of arthritis, in words ([1]; 10 mg/kg): no effect
Arthritic Index ([1]; 10 mg/kg subcutaneously daily, average over final three days of treatment, diseased control 3.8): 3.8
Histological Evaluation ([1]; 10 mg/kg, hindlimbs, day 48, diseased control 45): 45
Arthritic Index Percent Change [1, 2]: 0%
Histological Evaluation Percent Change [1, 2]: 0%
adverse reactions at injection sites ([1]; mouse, in vivo, sc): no adverse reactions were observed

CC(C)C[C@@H]1NC(=O)[C@H](Cc2c[nH]cn2)NC(=O)[C@H](Cc2c[nH]c3ccccc23)NC(=O)[C@H](C)NC(=O)[C@@H](NC(=O)[C@@H](N)CC(=O)O)CSSC[C@@H](C(=O)N[C@H](C(=O)O)[C@@H](C)O)NC(=O)[C@H](Cc2c[nH]c3ccccc23)NC(=O)[C@H](C(C)C)NC(=O)[C@H](CC(C)C)NC(=O)[C@H](CCC(=O)O)NC(=O)CNC1=O
adverse reactions at injection sites ([1]; daily subcutaneous injections day 32 to day 47, all doses, injection sites examined daily): no adverse reactions were observed
maximum inhibition of arthritic symptoms ([1]; mouse, in vivo): 37%

PCARHLGELVWCT (disulfide 2-12 (inferred))
OD 405 nm (human monomeric IgG): 1.323
OD 405 nm (histone): 0.444
OD 405 nm (C1q): 0.205
PAP immune complex binding (OD at 450 nm) (FcγIIa): 1.149
OD 405 nm (polyclonal IgM RF): 0.106
inhibition of RF binding to immune complexes, in words (polyclonal IgM RF): very effective inhibition
OD 450 nm (PAP immune complex binding) (FcγIII): 1.602
OD at 450 nm (PAP binding to FcγIIb) (FcγIIb): 1.211
OD 405 nm (whole human IgG4): 0.129
OD 405 nm (MBP): 0.489

DCAWHLGELAACT (disulfide 2-12 (inferred))
OD 405 nm (human monomeric IgG): 1.397
OD 405 nm (histone): 0.729
PAP immune complex binding (OD at 450 nm) (FcγIIa): 1.484
OD 405 nm (polyclonal IgM RF): 0.622
OD 450 nm (PAP immune complex binding) (FcγIII): 1.345
OD at 450 nm (PAP binding to FcγIIb) (FcγIIb): 1.067
OD 405 nm (whole human IgG4): 0.557
OD 405 nm (MBP): 0.706

DCAAHLGELAACT (disulfide 2-12 (inferred))
OD 405 nm (human monomeric IgG): 1.421
inhibition of immune complex binding to solid phase C1q, in words (C1q; Table 1): not significantly different from the positive control
OD 405 nm (C1q): 0.458
PAP immune complex binding (OD at 450 nm) (FcγIIa): 2.434
OD 450 nm (PAP immune complex binding) (FcγIII): 2.413
OD at 450 nm (PAP binding to FcγIIb) (FcγIIb): 2.263

APPDCARHLGELVWCT (Synthetically generated polypeptide)
OD 405 nm (whole human IgG4): 0.107
